Results from patent publication US20070265210A1, “Administration of C-glycoside compounds for protecting and/or activating gammadeltaT lymphocytes” (L'OREAL, priority 2006, published 2007).

Tested on: human peripheral blood cells (lymphocytes)
Assay: γδT lymphocyte proliferation induction, BrdU labeling after 3 days of culture
Format: cell-based
Parameters: key to cytotoxicity: *: cytotoxicity
Conditions: 3 days culture; for % stimulation relative to the control: BrdU
Description: The γδT lymphocyte proliferation-inducing activity is tested in the following way: human peripheral blood cells are cultured in the presence of an RPMI-type culture medium supplemented with L-glutamine (2 mM), penicillin/streptomycin (50 μg/50 IU/ml) and foetal calf serum (10%). The C-glycoside derivatives 1 and 2 are added at various concentrations (10 to 0.05 mM), along with phytohemagglutin (PHA at […]), a positive control for total lymphocyte proliferation.

SMILES	% stimulation relative to the control (0.05 mM) [%]	% stimulation relative to the control (0.1 mM) [%]	% stimulation relative to the control (0.5 mM) [%]	% stimulation relative to the control (1 mM) [%]	cytotoxicity (5 mM)	% stimulation relative to the control (5 mM) [%]	cytotoxicity (10 mM)	% stimulation relative to the control (10 mM) [%]
CC(=O)C[C@@H]1OC[C@@H](O)[C@H](O)[C@H]1O [Compound 1, 1-(C-β-D-xylopyranosyl)propan-2-one]	108	115	84	131	*	106	*	74
CC(=O)C[C@@H]1O[C@H](CO)[C@@H](O)[C@H](O)[C@H]1O [Compound 2, 1-(C-β-D-glucopyranosyl)propan-2-one]	64	76	90	123	–	227	–	224
